Experimental findings from publication PMC6399333, “Synthetic energy sensor AMPfret deciphers adenylate-dependent AMPK activation mechanism” (Nature Communications, 2019) are described below.

Test [1] concerns the target T1, AMPK γ1 subunit (in the α2β2γ1 AMPfret heterotrimer) (Rattus norvegicus, UniProt P80385).
T1 construct: gene Prkag1; with AMPK α2 (PRKAA2, Rattus norvegicus) and AMPK β2 (PRKAB2, Homo sapiens)
Nature of the test: fluorometric FRET titration of the purified sensor, single-site fit; also allosteric activation in kinase assay. In kind it is binding. The text has this:
fluorometric FRET titration of the purified sensor, single-site fit; also allosteric activation in kinase assay on AMPK γ1 subunit (in the α2β2γ1 AMPfret heterotrimer) | AMPfret reports binding of AMP (in absence of ATP) at one or more binding sites

In test [2] the target is T1, AMPK γ1 subunit (in the α2β2γ1 AMPfret heterotrimer). The test is described as follows: fluorometric FRET titration of the purified sensor, single-site fit. In kind it is binding.

The structures appear in SMILES notation.

For orientation: Kd means the concentration at which binding is half-saturated. The low end stands for a tighter complex, the high end for a looser complex.

T1 sequence (P80385 whole entry): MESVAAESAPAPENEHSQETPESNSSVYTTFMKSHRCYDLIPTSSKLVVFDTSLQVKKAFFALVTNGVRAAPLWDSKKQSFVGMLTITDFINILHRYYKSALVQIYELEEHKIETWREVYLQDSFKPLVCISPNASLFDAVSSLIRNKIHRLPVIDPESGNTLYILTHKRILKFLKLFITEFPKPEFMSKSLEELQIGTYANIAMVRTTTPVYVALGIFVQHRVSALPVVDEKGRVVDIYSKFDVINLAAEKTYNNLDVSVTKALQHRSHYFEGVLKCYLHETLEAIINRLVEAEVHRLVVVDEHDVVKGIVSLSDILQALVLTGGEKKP
T1 sequence (Q09137 whole entry partner): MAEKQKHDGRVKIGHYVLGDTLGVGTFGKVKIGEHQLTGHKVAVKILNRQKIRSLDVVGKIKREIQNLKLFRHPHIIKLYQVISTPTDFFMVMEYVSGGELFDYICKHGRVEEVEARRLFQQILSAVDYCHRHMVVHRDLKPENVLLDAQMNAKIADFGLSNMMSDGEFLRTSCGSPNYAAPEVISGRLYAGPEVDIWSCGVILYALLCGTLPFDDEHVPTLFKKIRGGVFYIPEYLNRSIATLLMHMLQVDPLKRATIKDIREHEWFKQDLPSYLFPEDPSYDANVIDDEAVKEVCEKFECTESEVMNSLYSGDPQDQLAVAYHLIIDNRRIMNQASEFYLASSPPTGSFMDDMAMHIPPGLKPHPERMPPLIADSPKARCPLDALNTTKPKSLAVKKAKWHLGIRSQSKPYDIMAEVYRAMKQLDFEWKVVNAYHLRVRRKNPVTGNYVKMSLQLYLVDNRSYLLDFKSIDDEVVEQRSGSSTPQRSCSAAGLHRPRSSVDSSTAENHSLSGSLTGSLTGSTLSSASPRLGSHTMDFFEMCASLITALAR
T1 sequence (O43741 whole entry partner): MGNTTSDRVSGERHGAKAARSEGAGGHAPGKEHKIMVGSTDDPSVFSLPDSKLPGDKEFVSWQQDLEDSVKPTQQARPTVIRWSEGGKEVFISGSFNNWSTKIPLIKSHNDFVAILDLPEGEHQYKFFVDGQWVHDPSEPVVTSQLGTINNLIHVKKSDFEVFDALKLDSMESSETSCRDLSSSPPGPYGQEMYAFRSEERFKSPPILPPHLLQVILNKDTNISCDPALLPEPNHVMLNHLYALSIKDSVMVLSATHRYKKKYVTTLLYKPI

`Nc1ncnc2c1ncn2[C@@H]1O[C@H](COP(=O)(O)O)[C@@H](O)[C@H]1O` [AMP] came in with a Kd in test [1] of approximately 1.5 µM.
Molecule `Nc1ncnc2c1ncn2[C@@H]1O[C@H](COP(=O)(O)OP(=O)(O)O)[C@@H](O)[C@H]1O` [ADP] gave a dissociation constant Kd in test [2] of 7.5 µM.
